Where a name gives a salt, the structure may show the parent alone. Read-outs that look alike come from different tables or passages of the source. Marks after values point to notes of the source that are not given here.
Columns and labels:
[1] = system: NCI-H460 (non-small cell lung); conditions: NCI-H460 (NSCLC); value reported by NCI; cited from earlier work
HCT-15 (colorectal) [2] = conditions: HCT-15 (COLON); value reported by NCI; cited from earlier work
OVCAR-3 (ovarian) [3] = conditions: value reported by NCI; cited from earlier work
HCT-116 (colorectal) [4] = conditions: HCT-116 (COLON); value reported by NCI; cited from earlier work
HT-29 (colorectal) [5] = conditions: HT29 (COLON); value reported by NCI; cited from earlier work
MCF-7 (breast) [6] = conditions: value reported by NCI; cited from earlier work
[7] = rats, intravenous; literature value; cited from earlier work
HT-29 human tumor cells = assay: HT-29 Human Tumor Xenograft anti-tumor activity; assay type: in vivo, Athymic mice; conditions: for Number of animals with no measurable tumor on Day 55 / Tumor Growth Delay (T − C) / Tumor Growth Inhibition (% T/C) / Tumors that had still not reached maximum pre-determined size: 15 mg/kg intravenous; for Tumor Growth Inhibition (% T/C): at Day 55; for Median tumor size / Mice with no measurable tumor: fifty-five days after dose initiation
Description: HT-29 Human Tumor Xenograft. Athymic mice were subcutaneously implanted with 30–40 mg tumor fragments using 12-gauge trocar needles. A sufficient number of mice were implanted with fragments so tumors in narrow weight range (100–200 mg) were selected for the trial on staging day (SD). The animals selected with tumors in the proper size range were randomized into six groups of 10 animals and intravenously administered the following test compounds:
The tumor measurements were performed using a caliper (millimeters); the tumor volume was calculated based on the formula: (Length×width^2)/2=Volume (mm^3).

[8] = assay type: physicochemical; conditions: for Solubility in TPGS / Solubility in Vitamin E USP/NF: 65 °C; for Solubility in Tween 80 NF: 65 → Room Temp.; for Solubility in Acetonitrile / Solubility in Captex 300 EP / Solubility in Chloroform / Solubility in DMSO / Solubility in Ethanol Denatured / Solubility in Glycerin USP/EP/BP/JP / Solubility in Methanol / Solubility in Methylene dichloride / Solubility in PEG-400 NF / Solubility in Propylene Glycol, USP / Solubility in Soybean Oil USP: Room Temp.
Description: Compounds were dissolved in each solvent under constant stirring and temperature to saturation. The resulting solutions were centrifuged and the supernatant was analyzed by high performance liquid chromatography (HPLC).

[9] = In vitro stability of the lactone form in presence of human serum albumin; assay type: in vitro ADME; conditions: saline buffered solution 10 mM pH 7.4, 4% human serum albumin, 37° C.; tested as SN2300 / SN2310 emulsion; FIG. 12
From the text: High performance liquid chromatography with fluorescence detection was used to analyze the decrease in the concentration of the lactone form over time.

HCT-116 (colorectal) [10] = assay: In vitro cytotoxicity GI50, ALAMAR BLUE, 48 hours; assay type: cell-based; conditions: HCT-116 (COLON), emulsion formulation diluted in cell media
Description: (§1) The cells were in contact with varying concentrations of the test article for a period of 48 hours. At the end of 48 hours, staining with ALAMAR BLUE was performed to determine the number of viable cells and calculate the degree of cellular growth inhibition as compared to a control group.

HCT-15 (colorectal) [11] = assay: In vitro cytotoxicity GI50, ALAMAR BLUE, 48 hours; assay type: cell-based; conditions: HCT-15 (COLON), emulsion formulation diluted in cell media
Description: as §1

MCF-7 (breast) [12] = assay: In vitro cytotoxicity GI50, ALAMAR BLUE, 48 hours; assay type: cell-based; conditions: emulsion formulation diluted in cell media
Description: as §1

OVCAR-3 (ovarian) [13] = assay: In vitro cytotoxicity GI50, ALAMAR BLUE, 48 hours; assay type: cell-based; conditions: emulsion formulation diluted in cell media
Description: as §1

HT-29 (colorectal) [14] = assay: In vitro cytotoxicity GI50, ALAMAR BLUE, 48 hours; assay type: cell-based, human; conditions: HT29 (COLON), emulsion formulation diluted in cell media
Description: as §1

[15] = system: NCI-H460 (non-small cell lung); assay: In vitro cytotoxicity GI50, ALAMAR BLUE, 48 hours; assay type: cell-based, human; conditions: NCI-H460 (NSCLC), emulsion formulation diluted in cell media
Description: as §1

[16] = Pharmacokinetics following intravenous administration in rats; assay type: in vivo, Sprague-Dawley rats; conditions: for Clearance / MRT / t1/2 (elimination): Sprague-Dawley rats, bolus intravenous, emulsion, approximately 14 mg/kg, plasma; for Plasma elimination half-life, times longer than the commercially available analogs: rats, intravenous
Description: Blood samples were collected for up to 120 hours post dose via the jugular vein. […] A noncompartmental analysis was carried out using WinNonlin (v 4.1).
The term “elimination rate constant” refers to the fraction of drug eliminated per unit of time. With first-order elimination, the rate of elimination is directly proportional to the serum drug concentration. There is a linear relationship between rate of elimination and serum drug concentration. Although the amount of drug eliminated in a first-order process changes with concentration, the fraction of a drug eliminated remains constant.
The term “clearance” refers to a measure of the body's ability to eliminate drug and is a hypothetical volume of distribution of drug which is cleared per unit time (i.e., mL/min) by any pathway of drug removal. […] The term “volume of distribution” refers to a calculated volume of body fluid that would be required to dissolve the total amount of drug at the same concentration as that found in the blood. It is a proportionality constant relating the amount of drug in the body to the measured concentration in biological fluid (blood, plasma, serum).

For `CC[C@@]1(O)C(=O)OCc2c1cc1n(c2=O)Cc2cc3ccccc3nc2-1` [Camptothecin], the GI50 [1] is given as 16 nM, the GI50 (HCT-15 (colorectal) [2]) is given as 160 nM and the GI50 (OVCAR-3 (ovarian) [3]) is given as 160 nM. The GI50 (HCT-116 (colorectal) [4]) was 40 nM, the GI50 (HT-29 (colorectal) [5]) was 126 nM and the GI50 (MCF-7 (breast) [6]) was 13 nM. For the same compound, the Clearance [7] was 147 mL/min/kg and the “t1/2 (elimination)” value [7] was 1.7 h.

In the case of `CC[C@@]1(O)C(=O)OCc2c1cc1n(c2=O)Cc2cc3cc(O)ccc3nc2-1` [Example 10-HO-CPT, 10-hydroxycamptothecin], the GI50 [1] is given as 11 nM, the GI50 (HCT-15 (colorectal) [2]) is given as 356 nM and the GI50 (OVCAR-3 (ovarian) [3]) is given as 62 nM. For the same compound, the GI50 (HCT-116 (colorectal) [4]) was 27 nM, the GI50 (HT-29 (colorectal) [5]) was 112 nM and the GI50 (MCF-7 (breast) [6]) was 10 nM.

With `CCc1c2c(nc3ccc(OC(=O)N4CCC(N5CCCCC5)CC4)cc13)-c1cc3c(c(=O)n1C2)COC(=O)[C@]3(O)CC` [Irinotecan, irinotecan hydrochloride] the “Number of animals with no measurable tumor on Day 55” value (HT-29 human tumor cells; q1dx5 (2 weeks)) was 0/10, the “Tumor Growth Delay (T − C)” value (HT-29 human tumor cells; q1dx5 (2 weeks)) was 14 days and the “Tumor Growth Inhibition (% T/C)” value (HT-29 human tumor cells; q1dx5 (2 weeks)) was 52 % T/C. For the same compound, the Median tumor size (HT-29 human tumor cells; q1dx5) was 1637 mm^3, the GI50 [1] was 5010 nM and the GI50 (HCT-116 (colorectal) [4]) was 7900 nM. The GI50 (HT-29 (colorectal) [5]) was 12600 nM, the GI50 (MCF-7 (breast) [6]) was 3980 nM and the MRT [7] was 1.43 h.

In the case of `CCc1c2c(nc3ccc(O)cc13)-c1cc3c(c(=O)n1C2)COC(=O)[C@]3(O)CC` [SN38, 7-ethyl-10-hydroxycamptothecin], the GI50 [1] is given as 1.4 nM, the GI50 (HCT-15 (colorectal) [2]) is given as 7.9 nM and the GI50 (OVCAR-3 (ovarian) [3]) is given as 2.9 nM. For the same compound, the GI50 (HCT-116 (colorectal) [4]) was 21 nM and the GI50 (HT-29 (colorectal) [5]) was 1 nM.

With `CC[C@@]1(OC(=O)CCC(=O)Oc2c(C)c(C)c3c(c2C)CC[C@@](C)(CCC[C@H](C)CCC[C@H](C)CCCC(C)C)O3)C(=O)OCc2c1cc1n(c2=O)Cc2cc3ccccc3nc2-1` [SN2300] the “Solubility in TPGS” value [8] was >133.3 mg/g, the “Solubility in Vitamin E USP/NF” value [8] was >288.3 mg/g and the “Solubility in Tween 80 NF” value [8] was 48.3 mg/g. For the same compound, the “Solubility in Acetonitrile” value [8] was 49.6 mg/g, the “Solubility in Captex 300 EP” value [8] was 96.7 mg/g and the “Solubility in Chloroform” value [8] was >372.5 mg/g. For the same compound, the “Solubility in DMSO” value [8] was >255.5 mg/g, the “Solubility in Ethanol Denatured” value [8] was 57.1 mg/g and the “Solubility in Glycerin USP/EP/BP/JP” value [8] was 2.541 mg/g. For the same compound, the “Solubility in Methanol” value [8] was 14.4 mg/g, the “Solubility in Methylene dichloride” value [8] was >336.5 mg/g and the “Solubility in PEG-400 NF” value [8] was 17.5 mg/g. The “Solubility in Propylene Glycol, USP” value [8] was 0.4633 mg/g, the “Solubility in Soybean Oil USP” value [8] was 45.2 mg/g and the “Stability of the lactone form over time” value [9] was “greater than that of camptothecin”. It also gave a GI50 (HCT-116 (colorectal) [10]) of 449 nM, a GI50 (HCT-15 (colorectal) [11]) of 20000 nM and a GI50 (MCF-7 (breast) [12]) of 325 nM. For the same compound, the “GI50 column, result in words (Poor activity)” value (OVCAR-3 (ovarian) [13]) was “Poor”, the GI50 (HT-29 (colorectal) [14]) was 434 nM and the GI50 [15] was 43 nM. The Clearance [16] was 0.135 mL/min/kg, the MRT [16] was 9.40 h and the “t1/2 (elimination)” value [16] was 29.08 h. The “Plasma elimination half-life, times longer than the commercially available analogs” value [16] was “approximately 30 times”, the “Number of animals with no measurable tumor on Day 55” value (HT-29 human tumor cells; q1dx5 (2 weeks)) was 0/10 and the “Tumor Growth Delay (T − C)” value (HT-29 human tumor cells; q1dx5 (2 weeks)) was 8.5 days. For the same compound, the “Tumor Growth Inhibition (% T/C)” value (HT-29 human tumor cells; q1dx5 (2 weeks)) was 79 % T/C, the “Number of animals with no measurable tumor on Day 55” value (HT-29 human tumor cells; q3dx10) was 0/10 and the “Tumor Growth Delay (T − C)” value (HT-29 human tumor cells; q3dx10) was 0 days. The “Tumor Growth Inhibition (% T/C)” value (HT-29 human tumor cells; q3dx10) was 102 % T/C.

For `CCc1c2c(nc3ccc(OC(=O)CCC(=O)Oc4c(C)c(C)c5c(c4C)CC[C@@](C)(CCC[C@H](C)CCC[C@H](C)CCCC(C)C)O5)cc13)-c1cc3c(c(=O)n1C2)COC(=O)[C@]3(O)CC` [SN2310], the “Solubility in TPGS” value [8] was 27.6 mg/g, the “Solubility in Vitamin E USP/NF” value [8] was 398.2 mg/g and the “Solubility in Tween 80 NF” value [8] was 2.7 mg/g. For the same compound, the “Solubility in Acetonitrile” value [8] was 3.1 mg/g, the “Solubility in Captex 300 EP” value [8] was 4.4 mg/g and the “Solubility in Chloroform” value [8] was >97.0 mg/g. For the same compound, the “Solubility in DMSO” value [8] was 30.5 mg/g, the “Solubility in Ethanol Denatured” value [8] was 4.2 mg/g and the “Solubility in Glycerin USP/EP/BP/JP” value [8] was 2.8 mg/g. For the same compound, the “Solubility in Methanol” value [8] was 3.8 mg/g, the “Solubility in Methylene dichloride” value [8] was >99.7 mg/g and the “Solubility in PEG-400 NF” value [8] was 0.017 mg/g. For the same compound, the “Solubility in Propylene Glycol, USP” value [8] was 3.2 mg/g, the “Solubility in Soybean Oil USP” value [8] was 3.3 mg/g and the “Stability of the lactone form over time” value [9] was “greater than that of camptothecin”. It also gave a GI50 (HCT-116 (colorectal) [10]) of 119 nM, a GI50 (HCT-15 (colorectal) [11]) of 99 nM and a GI50 (OVCAR-3 (ovarian) [13]) of 83 nM. The GI50 (HT-29 (colorectal) [14]) was 91 nM, the GI50 [15] was 4 nM and the Clearance [16] was 0.112 mL/min/kg. The MRT [16] was 5.15 h, the “t1/2 (elimination)” value [16] was 3.49 h and the “Plasma elimination half-life, times longer than the commercially available analogs” value [16] was ~3 times. For the same compound, the “Number of animals with no measurable tumor on Day 55” value (HT-29 human tumor cells; q1dx5 (2 weeks)) was 4/10, the “Tumor Growth Delay (T − C)” value (HT-29 human tumor cells; q1dx5 (2 weeks)) was >28* days and the “Tumors that had still not reached maximum pre-determined size” value (HT-29 human tumor cells; q1dx5 (2 weeks)) was “*90% of tumors in this group had still not reached maximum pre-determined size”. The “Tumor Growth Inhibition (% T/C)” value (HT-29 human tumor cells; q1dx5 (2 weeks)) was 4 % T/C, the “Number of animals with no measurable tumor on Day 55” value (HT-29 human tumor cells; q3dx10) was 8/10 and the “Tumor Growth Delay (T − C)” value (HT-29 human tumor cells; q3dx10) was >28* days. For the same compound, the “Tumors that had still not reached maximum pre-determined size” value (HT-29 human tumor cells; q3dx10) was “*90% of tumors in this group had still not reached maximum pre-determined size”, the “Tumor Growth Inhibition (% T/C)” value (HT-29 human tumor cells; q3dx10) was 2 % T/C and the Median tumor size (HT-29 human tumor cells; q1dx5) was 126 mm^3. For the same compound, the “Mice with no measurable tumor” value (HT-29 human tumor cells; q1dx5) was 40% and the “Mice with no measurable tumor” value (HT-29 human tumor cells; q3dx10) was 80%.

For `CC[C@@]1(O)C(=O)OCc2c1cc1n(c2=O)Cc2cc3c(CN(C)C)c(O)ccc3nc2-1` [Topotecan, topotecan hydrochloride], the GI50 [1] is given as 19.9 nM, the GI50 (HCT-15 (colorectal) [2]) is given as 501 nM and the GI50 (OVCAR-3 (ovarian) [3]) is given as 251 nM. The GI50 (HCT-116 (colorectal) [4]) was 39.8 nM, the GI50 (HT-29 (colorectal) [5]) was 125 nM and the GI50 (MCF-7 (breast) [6]) was 15.8 nM. The Clearance [7] was 53.7 mL/min/kg and the “t1/2 (elimination)” value [7] was 1.06 h.

Reference: patent publication US7223770B2, “Tocopherol-modified therapeutic drug compounds” (priority 2003, dated 2007)
